Results from patent US20220125913A1, “[…] PEPTIDES, AMINO-ACID SEQUENCES, AND COMPOSITIONS USEFUL FOR SARS-CoV-2 DETECTION AND COVID-19 PREVENTION” (priority 2020, published 2022).

test system: SARS-CoV-2 circulation lineages in Colombia (B.1, B.1.111, B.1.111+E48K); details: in vivo, sc

**Q.** How did the sera neutralizing antibodies turn out when CGVLSFELLHAPATVSGPKKSTNGC [PHE-14] was run?
**A.** Its sera neutralizing antibodies is “detected”.

**Q.** CGKDQVILLNKHIDAYKTFPPTGC [PHE-30] was tested. Which sera neutralizing antibodies did it give?
**A.** The sera neutralizing antibodies was “detected”.

**Q.** For CGVTLAILTALRLSAYSSNIVGC [PHE-20], which sera neutralizing antibodies is on record?
**A.** Its sera neutralizing antibodies is “detected”.
